Like-named read-outs stand apart in the source and are kept apart here.
How the values were obtained:
[1] = target: T1, human recombinant histamine H2 receptor (Homo sapiens, UniProt P25021); assay: Histamine H2 radioligand binding ([125I]Aminopotentidine); conditions: for inhibition at 0.3 µM: 0.3 μM compound
T1 construct: expressed in transfected cells; host or cells: CHO-K1 cells
Method: Non-specific binding was estimated in the presence of 3 μM Tiotidine. […] Biochemical assay results are presented as the percent inhibition of specific binding in Table 5.
Non-specific binding was estimated in the presence of 3 μM Tiotidine. […] Compounds were screened at 1 μM, using 1% DMSO as vehicle. Biochemical assay results are presented as the percent inhibition of specific binding in Table 6.

[2] = target: T2, human recombinant histamine H1 receptor (Homo sapiens, UniProt P35367); assay: Histamine H1 radioligand binding ([3H]Pyrilamine); conditions: for inhibition at 0.03 µM: 0.03 μM compound; for inhibition at 0.1 µM: 0.1 μM compound
T2 construct: expressed in transfected cells; host or cells: CHO cells
T2 sequence (P35367 whole entry): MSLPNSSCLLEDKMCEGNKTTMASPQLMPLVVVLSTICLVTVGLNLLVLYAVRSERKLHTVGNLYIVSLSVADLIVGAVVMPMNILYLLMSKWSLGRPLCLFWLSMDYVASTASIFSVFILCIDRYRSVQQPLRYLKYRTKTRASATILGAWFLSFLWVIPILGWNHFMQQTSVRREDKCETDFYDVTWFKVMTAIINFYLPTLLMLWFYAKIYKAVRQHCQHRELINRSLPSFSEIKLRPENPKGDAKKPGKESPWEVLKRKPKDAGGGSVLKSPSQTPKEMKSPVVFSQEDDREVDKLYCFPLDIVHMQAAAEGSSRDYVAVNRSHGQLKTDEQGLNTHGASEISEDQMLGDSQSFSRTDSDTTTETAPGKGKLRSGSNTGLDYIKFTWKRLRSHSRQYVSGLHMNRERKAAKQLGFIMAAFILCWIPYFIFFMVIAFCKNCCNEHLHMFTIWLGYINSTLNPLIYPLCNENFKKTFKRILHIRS
Method: To evaluate in radioligand binding assays the activity of compounds of the invention, human recombinant histamine H1 receptor expressed in Chinese hamster ovary (CHO) cells (De Backer M D et al. Biochem. Biophys. Res Comm. 197(3):1601, 1993) in a modified Tris-HCl buffer (50 mM Tris-HCl, pH 7.4, 2 mM MgCl2, 100 mM NaCl, 250 mM Sucrose) were used. […] Non-specific binding was estimated in the presence of 1 μM pyrilamine. Receptor proteins were filtered and washed, the filters were then counted to determine [^3H]pyrilamine specifically bound. […] Biochemical assay results are presented as the percent inhibition of specific binding in Table 5.
To evaluate in radioligand binding assays the activity of compounds of the invention, human recombinant histamine H1 receptor expressed in Chinese hamster ovary (CHO) cells (De Backer, M. D. et al., Biochem. Biophys. Res. Comm. 197(3):1601, 1993) in a modified Tris-HCl buffer (50 mM Tris-HCl, pH 7.4, 2 mM MgCl2, 100 mM NaCl, 250 mM Sucrose) was used. […] Non-specific binding was estimated in the presence of 1 μM pyrilamine. Receptor proteins were filtered and washed, the filters were then counted to determine [^3H]Pyrilamine specifically bound. Compounds were screened at 1 μM, using 1% DMSO as vehicle. Biochemical assay results are presented as the percent inhibition of specific binding in Table 6.

[3] = target: T3, human recombinant dopamine D2L receptor (Homo sapiens, UniProt P14416); assay: Dopamine D2L radioligand binding ([3H]Spiperone); conditions: percent inhibition of specific binding
T3 construct: expressed in transfected cells; host or cells: CHO cells
T3 sequence (P14416 whole entry): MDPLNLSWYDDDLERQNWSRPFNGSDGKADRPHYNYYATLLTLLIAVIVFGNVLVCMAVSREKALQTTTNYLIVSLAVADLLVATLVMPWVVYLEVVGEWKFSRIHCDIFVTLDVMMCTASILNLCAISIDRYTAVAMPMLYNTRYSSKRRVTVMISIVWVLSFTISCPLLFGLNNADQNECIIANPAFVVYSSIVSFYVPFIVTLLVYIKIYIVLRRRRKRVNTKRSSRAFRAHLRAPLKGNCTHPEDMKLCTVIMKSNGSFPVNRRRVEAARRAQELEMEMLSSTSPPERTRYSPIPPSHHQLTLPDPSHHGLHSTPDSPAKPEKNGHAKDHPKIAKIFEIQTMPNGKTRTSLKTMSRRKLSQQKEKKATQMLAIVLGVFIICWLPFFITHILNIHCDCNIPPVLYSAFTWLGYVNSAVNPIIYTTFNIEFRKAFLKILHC
Method: Non-specific binding was estimated in the presence of 10 μM Haloperidol. Receptor proteins were filtered and washed, the filters were then counted to determine [^3H]Spiperone specifically bound. […] Biochemical assay results are presented as the percent inhibition of specific binding in Table 6.

[4] = percent inhibition of specific binding, screened at 1 μM, read-out: Inhibition of ligand binding, Hist. H2
[5] = percent inhibition of specific binding, screened at 1 μM, read-out: Inhibition of ligand binding, Hist. H1
[6] = 0.1 nM [125I]Aminopotentidine, read-out: Histamine Binding H2, percent inhibition of specific binding
[7] = 1 μM compound, 0.1 nM [125I]Aminopotentidine, read-out: Histamine Binding H2, percent inhibition of specific binding
[8] = […] [3H]Pyrilamine, read-out: Histamine Binding H1, percent inhibition of specific binding
[9] = 1 μM compound, […] [3H]Pyrilamine, read-out: Histamine Binding H1, percent inhibition of specific binding

T1 sequence (P25021 whole entry): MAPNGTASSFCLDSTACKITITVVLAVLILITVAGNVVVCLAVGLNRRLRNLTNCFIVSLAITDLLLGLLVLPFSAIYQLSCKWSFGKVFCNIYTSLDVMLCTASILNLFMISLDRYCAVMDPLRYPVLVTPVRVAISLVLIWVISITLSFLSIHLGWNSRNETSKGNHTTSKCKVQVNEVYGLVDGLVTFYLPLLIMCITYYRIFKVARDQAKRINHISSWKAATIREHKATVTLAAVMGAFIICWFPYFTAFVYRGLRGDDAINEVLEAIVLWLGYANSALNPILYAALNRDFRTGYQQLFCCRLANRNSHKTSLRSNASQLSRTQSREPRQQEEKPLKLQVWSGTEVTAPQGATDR

Compound	inhibition at 1 µM [1, 4] [%]	inhibition at 1 µM [2, 5] [%]	inhibition at 1 µM [1, 7] [%]	inhibition at 1 µM [2, 9] [%]	also measured
Cc1ccc(C(O)Cn2c3c(c4ccccc42)CN(C)CC3)cc1 (stereo not shown) [Compound 7]	58	47			
CN1CCc2c(c3cc(Cl)ccc3n2C[C@@](C)(O)c2ccc(F)cc2)C1 [Compound 110]					Inhibition of ligand binding, Dop. D2L [3]: 35%
CN1CCc2c(c3cc(Cl)ccc3n2CCc2n[nH]c(=S)n2C)C1(C)C [Compound 218]			34		Histamine Binding H1, percent inhibition of specific binding ([2]; 1 μM compound, […] [3H]Pyrilamine): 80%
CN1Cc2c(n(CCc3n[nH]c(=S)n3C)c3ccc(C(F)(F)F)cc23)CC1(C)C [Compound 219]			71	89	

The next lines start with results.

inhibition at 1 µM [1, 4] [%]	inhibition at 1 µM [2, 5] [%]	inhibition at 1 µM [1, 7] [%]	inhibition at 1 µM [2, 9] [%]	Compound	also measured
73	96	73	96	CCN1CCc2c(c3cc(C)ccc3n2CCc2ccc(C)cc2)C1 [Compound 26]	inhibition at 0.3 µM [1, 6]: 34%; inhibition at 0.03 µM [2, 8]: 67%; inhibition at 0.1 µM [2, 8]: 81%
		54	99	Cc1ccc2c(c1)c1c(n2CCc2ccccc2)CCN(C2CC2)C1 [Compound 35, 2-cyclopropyl-2,3,4,5-tetrahydro-8-methyl-5-phenethyl-1H-pyrido[4,3-b]indole]	
53	101	53	101	CCN1CCc2c(c3cc(C)ccc3n2CCc2ccccc2)C1 [Compound 37]	inhibition at 0.3 µM [1, 6]: 22%; inhibition at 0.03 µM [2, 8]: 59%; inhibition at 0.1 µM [2, 8]: 78%
		13	-4	CCOC(=O)N1CCc2c(c3cc(C)ccc3n2CCc2cccnc2)C1 [Compound 217]	

Reference: patent US9096591B2, “Tetracyclic compounds” (Medivation Technologies, Inc., priority 2007, dated 2015)
